In patent publication US6297230A, “Cyanoaziridines for treating cancer” (priority 2000, dated 2001):

Key:
[1] = system: Human 8226 myeloma tumors; assay: Antitumor efficacy in SCID mice bearing human 8226 myeloma tumors (40-fold doxorubicin resistant); type: in vivo, human tumor xenograft in SCID mice
Description: Testing for Antitumor Efficacy in Mice with Severe Combined Immunodeficiency Disease (SCID)
The SCID mouse represents an autosomal recessive mutation in an inbred strain of […] mice which renders the animals profoundly immunodeficient and able to accept tissue xenografts from rats, humans or other strains of mice. (Ware, et al., J Immunol Methods 85:353-361, 1985.) The immunologic defect results from an inability to carry out normal immunoglobulin and T-cell receptor recombination reactions during the development of T- and B-lymphocytes. This renders mice with very low levels of T- and B-cells, and low levels of antibody production which allows foreign (allogeneic or xenogeneic) tissue grafts to grow in vivo. […] (Phillips, et al., Curr Top Microbiol Immunol 152:259-263, 1989.) Compared to athymic nude mice, SCID mice accept more tumor tissue types and breed more efficiently. (Phillips, et al., Curr Top Microbiol Immunol 152:259-263, 1989.) The SCID mice are also more sensitive to ionizing radiation (Budach, et al., Cancer Res 52(22):6292-6296, 1992) due to a defect in DNA double strand break repair. (Chang, et al., Cancer Res 53:1244-1248, 1993.) Because some SCID mice can spontaneously revert to a more normal phenotype, serum immunoglobulin […] (IgG) levels are routinely measured and if elevated (leaky phenotype syndrome), the mouse is excluded from further study.
(§1) The SCID mouse colony is maintained in a barrier facility with specially filtered air, autoclaved (sterilized) food and water and protective handling precautions (gloves, mask, gown) to prevent inadvertent infection. For tumor studies, human tumor cells are grown in vitro, harvested, counted and injected subcutaneously into the front flank area. Tumor cell innocula range from 10^6 -2×10^7 cells/mouse. Palpable tumors begin to develop after 1-3 weeks and sizes are determined by caliper measure of the widest perpendicular diameters. These dimensions are converted to mass using the formula:
wherein W=the shorter of the two dimensions and L=the longer diameter value.
Tumor growth rates are plotted as mass (g) per days after inoculation.
Drug treatments are given by intravenous (IV) or intraperitoneal (IP) injection beginning 24 hours after tumor implantation (day 1). […] Drug therapy began 1 day later with AMP-404 dissolved in a water-miscible co-solvent system containing (per mL): benzyl alcohol 30 mg; polysorbate 80 mw, 80 mg; polyethylene glycol 300 mw, 650 mg; and q.s. to 1.0 mL in absolute ethanol. The daily dose was either 50 mg/kg or 100 mg/kg. […]

[2] = Body weight and lethality in SCID mice treated with AMP-404; type: in vivo
Description: as §1, with “formula: […]” for “formula:”
Drug treatments are given by intravenous (IV) or intraperitoneal (IP) injection beginning 24 hours after tumor implantation (day 1). […] Drug therapy began 1 day later with AMP-404 dissolved in a water-miscible co-solvent system containing (per mL): benzyl alcohol 30 mg; polysorbate 80 mw, 80 mg; polyethylene glycol 300 mw, 650 mg; and q.s. to 1.0 mL in absolute ethanol. The daily dose was either 50 mg/kg or 100 mg/kg. Therapy was continued daily for […] and tumors were measured three times per week up to the 7 week ending period (two weeks after stopping drug therapy).

## N#CC1CN1C(=O)Nc1ccccc1 (stereo not shown) [AMP 404, 2-Cyanoaziridine-1-(N-phenyl)carboxamide]
[1]; 50 mg/kg daily
  Antitumor effect: not active
[1]; 50 mg/kg daily, Week 3
  Mean (SD) tumor volume: 104.2 (78.6) mm^3
[1]; 50 mg/kg daily, Week 4
  Mean (SD) tumor volume: 247.9 (225.9) mm^3
[1]; 50 mg/kg daily, Week 5
  Mean (SD) tumor volume: 574.2 (296.2) mm^3
[1]; 50 mg/kg daily, Week 6
  Mean (SD) tumor volume: 1,020 (396.2) mm^3
[1]; 50 mg/kg daily, Week 7
  Mean (SD) tumor volume: 1,858.4 (941.4) mm^3
[1]; 100 mg/kg
  Mean reduction in tumor volume: 50%
[1]; 100 mg/kg daily, Week 3, P-value .005 vs control
  Mean (SD) tumor volume: 32.9 (17.9) mm^3
[1]; 100 mg/kg daily, Week 4, P-value .068 vs control
  Mean (SD) tumor volume: 104.9 (81.8) mm^3
[1]; 100 mg/kg daily, Week 5, P-value .229 vs control
  Mean (SD) tumor volume: 312.5 (195.5) mm^3
[1]; 100 mg/kg daily, Week 6, P-value .100 vs control
  Mean (SD) tumor volume: 357.3 (314.5) mm^3
[1]; 100 mg/kg daily, Week 7, P-value 0.19 vs control
  Mean (SD) tumor volume: 824.5 (793.7) mm^3
[1]; 100 mg/kg, control approximately 1,000 mm^3
  Tumor size at end of 6 week experiment: approximately 300 mm^3
[1]; after inoculation
  Onset of developing palpable tumors: 3 weeks
[1]; all 3 groups
  Tumor take rate (% of inoculated mice developing palpable tumors): 100%
[1]; multidrug-resistant human myeloma, SCID mice
  Antitumor activity in vivo: active against multidrug-resistant human myeloma cells in vivo
[2]; 50 mg/kg daily
  Weight loss: no apparent weight loss
[2]; 100 mg/kg daily
  Mean body weight loss compared to control: 15-20%
[2]; mouse, in vivo
  Drug-induced lethality: no drug-induced lethality
